Reference: patent US11122826B2, “Organic compounds” (GIVAUDAN S.A., priority 2013, dated 2021)

Assay: Taste evaluation by a panel of experienced tasters in Kikkoman low salt soy sauce
Details: 0.25 ppm dosed to Kikkoman low salt soy sauce (1 g salt/100 ml)
Description: Blanco Verdunde Kikkoman low Salt 1 g Salt/100 ml
The samples were evaluated by a panel of experienced tasters.

Row | SMILES | taste of the sample as agreed by the panel
1 | CCCCCCCC/C=C\CCCCCCCC(=O)NC(C)(C)C(=O)O [2-methyl-2-oleamidopropanoic acid, 2-methyl-2-oleamidopropanoic Acid] | cleaner, more upfront body, salty, less fermented, more upfront, more salty bitter and sweet, fermented
2 | CCCCCCCCCCCCCCCC(=O)NC(C)(C)C(=O)O [2-methyl-2-palmitamidopropanoic acid, 2-methyl-2-palmitamidopropanoic Acid] | strong salty, more upfront, fermented, slightly bitter and sweet
3 | CCCCCCCCCCCCCCCCCC(=O)NC(C)(C)C(=O)O [2-methyl-2-stearamidopropanoic acid, 2-methyl-2-stearamidopropanoic Acid] | salty upfront, no aftertaste expanding, bitter aftertaste not negative, more upfront salty, not as bitter and sweet, fermented
